Drawing on US20130344026A1, “Dimeric Smac Mimetics” (priority 2009, published 2013), this text covers IC50 for 22 molecules.

The first test concerns HCC461. Put plainly: cell viability assay in HCC461, compound alone. The class given is cell-based. The note with it: HCC461, HCC461; Tables 6-9; read-out: IC50 (μM) in cell viability assay in HCC461.
`CN[C@@H](C)C(=O)N[C@H](C(=O)N[C@H]1C[C@@H](C(=O)N[C@@H]2CCCc3ccccc32)N(C(=O)[C@@H](NC(=O)[C@H](C)NC)C(C)(C)C)C1)C(C)(C)C` [Compound 145]: the IC50 (as a rule, the concentration that gives 50% inhibition) is over 30 µM. Turning to `CN[C@@H](C)C(=O)N[C@@H](CCCCNC(=O)c1cccc(C(=O)N[C@H]2C[C@@H](C(=O)N[C@@H]3CCCc4ccccc43)N(C(=O)[C@@H](NC(=O)[C@H](C)NC)C(C)(C)C)C2)c1)C(=O)N1CCCC[C@H]1C(=O)N[C@@H]1CCCc2ccccc21` [Compound 143], the IC50 is 0.027 µM.

Staying with this test, now noted: HCC461, HCC461; Tables 15-18; read-out: IC50 (uM) in cell viability assay in HCC461.
In the case of `CN[C@@H](C)C(=O)N[C@H](C(=O)N1CCC[C@H]1C(=O)N[C@H](COCc1cccc(COC[C@@H](NC(=O)[C@@H]2CCCN2C(=O)[C@@H](NC(=O)[C@H](C)NC)C(C)(C)C)C2CCCCC2)c1)c1ccccc1)C(C)(C)C` [Compound P4-18], the IC50 turned out to be 0.013 µM.

Take `CN[C@@H](C)C(=O)N[C@@H](CC#CC#CC[C@H](NC(=O)[C@H](C)NC)C(=O)N1CSC[C@H]1C(=O)N[C@@H]1CCCc2ccccc21)C(=O)N1CSC[C@H]1C(=O)N[C@@H]1CCCc2ccccc21` [Compound P2-33]: the IC50 was determined as 0.188 µM. `CN[C@@H](C)C(=O)N[C@@H](COCC#CC#CCOC[C@H](NC(=O)[C@H](C)NC)C(=O)N1CCCC1C(=O)N[C@@H]1CCCc2ccccc21)C(=O)N1CCCC1C(=O)N[C@@H]1CCCc2ccccc21` (stereo partly shown) [Compound P2-19]: the IC50 is 0.025 µM.

The test is the same for the next values; noted with them: HCC461, HCC461 cells, compound alone; read-out: IC50 (uM) in cell viability assay in HCC461.
In the case of `CN[C@@H](C)C(=O)N[C@H](C(=O)N1C[C@@H](NC(=O)[C@@H]2[C@@H]3CC[C@@H](C3)[C@@H]2C(=O)N[C@H]2C[C@@H](C(=O)N[C@@H]3CCCc4ccccc43)N(C(=O)[C@@H](NC(=O)[C@H](C)NC)C(C)(C)C)C2)C[C@H]1C(=O)N[C@@H]1CCCc2ccccc21)C(C)(C)C` [Compound P3-34], the IC50 is 0.08 µM. In the case of `CN[C@@H](C)C(=O)N[C@H](C(=O)N1C[C@@H](NC(=O)Cc2ccc(CC(=O)N[C@H]3C[C@@H](C(=O)N[C@@H]4CCCc5ccccc54)N(C(=O)[C@@H](NC(=O)[C@H](C)NC)C(C)(C)C)C3)cc2)C[C@H]1C(=O)N[C@@H]1CCCc2ccccc21)C(C)(C)C` [Compound P3-18], the IC50 came out at 0.008 µM.

Consider `CC[C@H](C)[C@H](NC(=O)[C@H](C)NC)C(=O)N1C[C@@H](NC(=O)/C=C/C(=O)N[C@H]2C[C@@H](C(=O)N[C@H](C)c3ccccc3)N(C(=O)[C@@H](NC(=O)[C@H](C)NC)[C@@H](C)CC)C2)C[C@H]1C(=O)N[C@H](C)c1ccccc1` [Compound P3-76], for which the IC50 was found to be 0.036 µM. As for `CN[C@@H](C)C(=O)N[C@H](C(=O)N1C[C@@H](NC(=O)C(C)C(C)C(=O)N[C@H]2C[C@@H](C(=O)N[C@@H]3CCCc4ccccc43)N(C(=O)[C@@H](NC(=O)[C@H](C)NC)C(C)(C)C)C2)C[C@H]1C(=O)N[C@@H]1CCCc2ccccc21)C(C)(C)C` (stereo partly shown) [Compound P3-24], the IC50 was 0.006 µM. The same measure, in the same setting: in the case of `CN[C@@H](C)C(=O)N[C@H](C(=O)N1C[C@@H](NC(=O)c2cc(C(=O)N[C@H]3C[C@@H](C(=O)NC4CCCc5ccccc54)N(C(=O)[C@@H](NC(=O)[C@H](C)NC)C(C)(C)C)C3)ccc2Br)CC1C(=O)N[C@@H]1CCCc2ccccc21)C(C)(C)C` (stereo partly shown) [Compound P3-30] it was 0.013 µM. The same measure, in the same setting: in the case of `CN[C@@H](C)C(=O)N[C@H](C(=O)N[C@@H](CCCCCC[C@H](NC(=O)[C@@H](NC(=O)[C@H](C)NC)C(C)(C)C)C(=O)N[C@@H]1CCCc2ccccc21)C(=O)N[C@@H]1CCCc2ccccc21)C(C)(C)C` [Compound P3-65] it was 0.002 µM; in that of `CN[C@@H](C)C(=O)N[C@H](C(=O)N1C[C@@H](NC(=O)c2cccc(C(=O)N[C@H]3C[C@@H](C(=O)N[C@H](C)C(C)C)N(C(=O)[C@@H](NC(=O)[C@H](C)NC)C(C)(C)C)C3)c2)C[C@H]1C(=O)N[C@H](C)C(C)C)C(C)(C)C` [Compound P3-83], 0.196 µM; in that of `CN[C@@H](C)C(=O)N[C@H](C(=O)N1C[C@@H](NC(=O)c2cnc(C(=O)N[C@H]3C[C@@H](C(=O)N[C@@H]4CCCc5ccccc54)N(C(=O)[C@@H](NC(=O)[C@H](C)NC)C(C)(C)C)C3)cn2)C[C@H]1C(=O)N[C@@H]1CCCc2ccccc21)C(C)(C)C` [Compound P3-13], 0.028 µM. Still for that read-out and setting: in the case of `CN[C@@H](C)C(=O)N[C@H](C(=O)N1C[C@@H](NC(=O)c2cc(C(=O)N[C@H]3C[C@@H](C(=O)N[C@@H]4CCCc5ccccc54)N(C(=O)[C@@H](NC(=O)[C@H](C)NC)C(C)(C)C)C3)cc(C(C)(C)C)c2)C[C@H]1C(=O)N[C@@H]1CCCc2ccccc21)C(C)(C)C` [Compound P3-23] it was 0.007 µM; in that of `CN[C@@H](C)C(=O)N[C@H](C(=O)N1C[C@@H](NC(=O)c2ccccc2C(=O)N[C@H]2C[C@@H](C(=O)N[C@@H]3CCCc4ccccc43)N(C(=O)[C@@H](NC(=O)[C@H](C)NC)C(C)(C)C)C2)C[C@H]1C(=O)N[C@@H]1CCCc2ccccc21)C(C)(C)C` [Compound P3-20], 0.008 µM. For the molecule `CN[C@@H](C)C(=O)N[C@H](C(=O)N1C[C@@H](NC(=O)c2cccc(C(=O)N[C@H]3C[C@@H](C(=O)N[C@H](C)c4ccccc4)N(C(=O)[C@@H](NC(=O)[C@H](C)NC)C(C)C)C3)c2)C[C@H]1C(=O)N[C@H](C)c1ccccc1)C(C)C` [Compound P3-80], the IC50 was found to be 0.053 µM. For the molecule `CN[C@@H](CO)C(=O)N[C@H](C(=O)N1C[C@@H](NC(=O)c2cccc(C(=O)N[C@H]3C[C@@H](C(=O)N[C@@H]4CCCc5ccccc54)N(C(=O)[C@@H](NC(=O)[C@H](CO)NC)C(C)(C)C)C3)c2)C[C@H]1C(=O)N[C@@H]1CCCc2ccccc21)C(C)(C)C` [Compound P3-86], the IC50 was 0.077 µM. Same read-out and setting: with `CN[C@@H](C)C(=O)N[C@H](C(=O)N1C[C@@H](NC(=O)CCCCC(=O)N[C@H]2C[C@@H](C(=O)N[C@@H]3CCCc4ccccc43)N(C(=O)[C@@H](NC(=O)[C@H](C)NC)C(C)(C)C)C2)C[C@H]1C(=O)N[C@@H]1CCCc2ccccc21)C(C)(C)C` [Compound P3-22] the figure was 0.003 µM; with `CN[C@@H](C)C(=O)N[C@H](C(=O)N1C[C@@H](NC(=O)c2ccc(CNC(=O)CCC(=O)NCc3ccc(C(=O)N[C@H]4C[C@@H](C(=O)NC5CCCc6ccccc65)N(C(=O)[C@@H](NC(=O)[C@H](C)NC)C(C)(C)C)C4)cc3)cc2)C[C@H]1C(=O)NC1CCCc2ccccc21)C(C)(C)C` (single isomer, unassigned) [Compound P3-70], 0.06 µM.

The same test, now with this note: HCC461; Tables 6-9; read-out: IC50 (μM) in cell viability assay in HCC461.
In the case of `CN[C@@H](C)C(=O)N[C@H](C(=O)N[C@@H](CCCCNC(=O)c1cccc(C(=O)N[C@H]2CC(C(=O)N[C@@H]3CCc4ccccc4C3)N(C(=O)[C@@H](NC(=O)[C@H](C)NC)C(C)(C)C)C2)c1)C(=O)N[C@@H](C)C(C)C)C(C)(C)C` (stereo partly shown) [Compound 161], the IC50 came to 2.5 µM. On the same count and under the same terms, in the case of `C[C@H](NC(=O)OCc1ccc([N+](=O)[O-])cc1)C(=O)NC(C(=O)N1C[C@@H](NC(=O)c2cc(C(=O)N[C@H]3C[C@@H](C(=O)N[C@@H]4CCCc5ccccc54)N(C(=O)[C@@H](NC(=O)[C@H](C)NC(=O)OCc4ccc([N+](=O)[O-])cc4)C(C)(C)C)C3)cc(S(=O)(=O)O)c2)CC1C(=O)N[C@@H]1CCCc2ccccc21)C(C)(C)C` (stereo partly shown) [Compound 112] it was over 30 µM.

Staying with this test, now noted: HCC461 cells, compound alone; read-out: IC50 (uM) in cell viability assay in HCC461.
In the case of `CN[C@@H](C)C(=O)N[C@H](C(=O)N1C[C@@H](NC(=O)C2CCCC(C(=O)N[C@H]3C[C@@H](C(=O)NC4CCCc5ccccc54)N(C(=O)[C@@H](NC(=O)[C@H](C)NC)C(C)(C)C)C3)C2)CC1C(=O)N[C@@H]1CCCc2ccccc21)C(C)(C)C` (stereo partly shown) [Compound P3-27], the IC50 was 0.031 µM.
